The source of these data is patent US8828696B2, “Use of Penicillin G Procaine as a selective antimicrobial agent in the production of alcohol by fermentation” (Lallemand Specialites, Inc, priority 2008, dated 2014).

One assay has as its system contaminating bacteria. The experiment in a line: Alcohol production plant trial, fermentor drop data (50 m/g/y dry grind, corn). It counts as cell-based. The procedure: This trial was conducted at a 50 million gallon per year (m/g/y) dry grind fuel alcohol production facility utilizing corn as a fermentation substrate. Batch yeast propagation and fermentation process were utilized. Antimicrobials were added to the fermentor during the fill cycle at approximately 30% fill.
No other changes were made to the process or chemical additions that would influence the fermentation kinetics monitored during 3 sets of fermentor batches listed below. The fermentation data was accumulated at the end (drop) of the fermentation process for each of the fermentors. Fermentation kinetics was measured for three batch cycles including:
Set 1—“Pre Penicillin G Procaine trial”-10 fermentor batches using a level of 0.5 ppm Virginiamycin. See results in Table 2.
Set 2—“Penicillin G Procaine trial”-10 fermentor batches using a level of 0.5 ppm of Penicillin G Procaine. See results in Table 3.
Set 3—“Post Penicillin G Procaine trial”-10 fermentor batches using a level of 0.5 ppm of Virginiamycin. See results in Table 4.

The test system of the next assay is Lactobacillus fermentum. In words: Comparative efficacy analysis Virginiamycin vs. Penicillin G Procaine, growth in MRS broth, 24 well plate. The settings on record: industry isolated Lactobacillus fermentum; ppm of the fermentation mixture. The class given is cell-based. An excerpt: The most commonly found microorganism in fuel ethanol producing plants is the Lactobacillus fermentum bacterium and is considered as an “industry normal” bacterium. This example compares the use of a Bactenix® line of products, Penicillin G Procaine-antibiotic versus Virginiamycin-antibiotic to control “industry normal” Lactobacillus fermentum bacterium. This trial uses an alcohol water mixture to assure total dissolving of antibiotics. This assures that the correct concentrations of antibiotics are going into the test wells and thereby preventing under dosing during the trial. All bacteria tested were industry specific isolates that were obtained from actual corn mash samples from fermentation alcohol production plants. The trial was set up as follows: • 1. Dissolve 0.1 g of each of the antibiotics in 1 ml water and then add 5 ml of ethanol, vortex and bring up to 10 ml with sterile water to from a suspension. • 2. Dilute the previous suspension 1:10 with sterile water. This gives a one mg/ml concentration. • 3. Filter the suspension by running through a 0.2 μm syringe filter. • 4. Add four μl broth in a centrifuge then add antibiotics to MRS (DeMan, Rogosa and Sharpe) broth at the concentrations required for the test. • 5. Take four μl of a fresh 24-hour culture of the target organisms and add to the corresponding empty wells in a pre-labeled 24 well tissue culture plate. • 6. Pipette one ml of the appropriate antibiotic media to each well of the plate. • 7. Incubate at 33° C. for 24 hours. • 8. Read plates for bacterial growth and re-incubate the plates at 33° C. • 9. After 48 hours read and report the final results.

Setting [1] is: Penicillin G Procaine trial 0.5 ppm compared with Virginiamycin sets.
Where [2] appears, read: Set 2 'Penicillin G Procaine trial', 0.5 ppm, 10 Batch average.
The mark [3] stands for this setting: Set 2 'Penicillin G Procaine trial', 0.5 ppm, drop data, single fermentor batch.

Molecules are shown by their SMILES. Several values for one entry are separate records, joined by “and”; a condition that tells them apart may be missing. Equal entries are not always repeated.

With `CC1(C)S[C@@H]2[C@H](NC(=O)Cc3ccccc3)C(=O)N2[C@H]1C(=O)O.CCN(CC)CCOC(=O)c1ccc(N)cc1` [Penicillin G Procaine], in the assay on contaminating bacteria (setting [1]), the “decrease of lactic acid production” value is given as “about a quarter percent”, the “increase of ethanol production” value is recorded as “about half a percent” and the “production increase of ethanol per fermentor” value is given as “about 2,500 gallons”. In the assay with contaminating bacteria (setting [2]), this compound came in with an Acetic % of 0.03%, an EtOH v/v % of 15.98 v/v %, a Glucose % of 0.28% and a Lactic % of 0.24%. Further, in the assay with contaminating bacteria (setting [3]), the Acetic % is 0.03% and 0.02% and 0.05% and 0.04%; the Glucose % is 0.28% and 0.30% and 0.27% and 0.29%; the Lactic % is 0.28% and 0.19% and 0.21% and 0.26% and 0.25% and 0.23% and 0.24%. Besides, in the assay with Lactobacillus fermentum, the minimum inhibitory concentration is on record as 0.1 ppm.
